Source: article PMC5501787, “Heliosterpenoids A and B, two Novel Jatrophane-Derived Diterpenoids with a 5/6/4/6 Ring System from Euphorbia helioscopia” (Scientific Reports, 2017)

Biological target: P-glycoprotein (ABCB1) (Homo sapiens, UniProt P08183)
Assay: inhibition of P-gp-mediated adriamycin efflux in MCF-7/ADR cells
Type: cell-based

Chain of P-glycoprotein (ABCB1) (P08183 whole entry): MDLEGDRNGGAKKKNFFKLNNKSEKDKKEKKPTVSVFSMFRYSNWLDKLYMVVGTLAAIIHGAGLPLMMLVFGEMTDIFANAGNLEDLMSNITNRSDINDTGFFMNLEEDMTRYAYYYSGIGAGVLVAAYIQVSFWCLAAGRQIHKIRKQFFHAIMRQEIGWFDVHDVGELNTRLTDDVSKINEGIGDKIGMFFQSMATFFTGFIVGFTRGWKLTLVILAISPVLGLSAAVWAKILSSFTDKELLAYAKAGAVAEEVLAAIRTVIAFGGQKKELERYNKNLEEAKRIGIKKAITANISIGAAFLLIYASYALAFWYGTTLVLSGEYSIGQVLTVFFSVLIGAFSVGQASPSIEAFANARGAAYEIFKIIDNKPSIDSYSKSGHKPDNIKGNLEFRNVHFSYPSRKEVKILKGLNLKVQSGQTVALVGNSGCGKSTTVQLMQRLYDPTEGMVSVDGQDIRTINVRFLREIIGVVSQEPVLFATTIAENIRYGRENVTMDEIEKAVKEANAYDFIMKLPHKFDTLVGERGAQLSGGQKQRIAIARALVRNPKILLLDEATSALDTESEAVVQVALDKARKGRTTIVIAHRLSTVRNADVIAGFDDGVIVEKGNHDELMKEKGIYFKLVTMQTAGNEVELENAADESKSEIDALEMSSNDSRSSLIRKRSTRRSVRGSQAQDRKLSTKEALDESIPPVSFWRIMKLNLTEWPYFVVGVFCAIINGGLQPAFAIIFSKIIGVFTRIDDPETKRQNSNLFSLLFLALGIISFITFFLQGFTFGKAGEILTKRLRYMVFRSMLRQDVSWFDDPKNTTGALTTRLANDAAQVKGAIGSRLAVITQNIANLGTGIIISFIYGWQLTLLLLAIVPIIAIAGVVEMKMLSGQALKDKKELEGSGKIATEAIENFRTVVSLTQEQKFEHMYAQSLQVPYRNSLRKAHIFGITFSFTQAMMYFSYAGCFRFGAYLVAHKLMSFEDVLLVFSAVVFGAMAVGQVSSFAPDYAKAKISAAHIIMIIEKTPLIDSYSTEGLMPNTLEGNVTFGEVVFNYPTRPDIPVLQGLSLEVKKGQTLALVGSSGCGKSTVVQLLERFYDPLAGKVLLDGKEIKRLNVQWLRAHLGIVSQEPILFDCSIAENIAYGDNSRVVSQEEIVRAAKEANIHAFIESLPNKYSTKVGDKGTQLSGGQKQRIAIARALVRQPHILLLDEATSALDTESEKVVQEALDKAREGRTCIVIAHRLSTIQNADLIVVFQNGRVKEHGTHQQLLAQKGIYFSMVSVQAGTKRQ

Structure (SMILES)	IC50 [nM]
CC(=O)O[C@@H]1[C@@H](C)[C@H]2[C@@H]([C@H]3[C@@H](OC(=O)c4ccccc4)[C@H](C)C[C@@]31OC(C)=O)[C@]1(C)C=CC(=O)C(C)(C)[C@H]21 [compound 1, Heliosterpenoid A]	1280
CC(=O)O[C@H]1[C@@H](C)[C@H]2[C@@H]([C@H]3[C@@H](OC(=O)c4ccccc4)[C@@H](C)C[C@@]31O)[C@]1(C)C(=O)C=CC(C)(C)[C@H]21 [compound 2, Heliosterpenoid B]	1020
